Measurements published in patent publication US8133694B2, “Functional vitamin D derivatives and method of determining 25-hydroxy- and 1α, 25-dihydroxy vitamin D” (Immundiagnostik AG, priority 1998, dated 2012).

Experiments:
[1] = tested on: vitamin D-binding protein; assay: Competitive protein binding analysis (CBPA) with 3H-25-OH-vitamin D as tracer, cross reactions; design: species or system goat
Method: In each case 100 μl vitamin D binding protein, isolated from goat serum (1:15000 in assay buffer with 3% (w/v) PEG 6000) together with 10 μl standard, control or sample (10 μl result from the sample preparation) was placed in the wells. The microtitration plate was incubated for 24 hours at 4EC in the dark and subject to shaking. Then, the solution was removed from the wells and the wells washed five times in each case with 200 μl washing buffer.
Insofar as no other indication is given, all reagents, buffers and materials were the same as in above-mentioned Example 3. There served as competitive binding partner (tracer) tritium-labelled 25-OH-vitamin D3. Differing from Example 3, the measurement samples were purified by means of extraction (into individual values). For this purpose, in each case 50 μl sample [non-specific assay buffer NSB, standard, control, patients sample (plasma, serum or urine)] was introduced into a 1.5 ml disposable reaction container, 200 μl acetonitrile added, mixed, the container walls centrifuged free, and the mixture incubated for 20 to 30 minutes at 4EC. The mixture was centrifuged at 1700×g for 10 minutes. The determinations were effected with the results using duplicate values.
For this purpose 25 μl clear result was transferred to a glass test tube (or into a special-RIA-container from Sarstedt, Darmstadt) and 10 μl tracer (3H-25-OH-D), 300 μl assay buffer and 100 μl vitamin D-binding protein (not in NSB) added. The test tube contents were mixed, incubated for one hour at 4EC and, to remove non-bound radioactive tracer, 100 μl activated charcoal suspension (activated charcoal containing phosphate buffer with 0.1% NaN3) was added. The test tube content was mixed, incubated for 3 to 5 minutes at 4EC, and the active charcoal pelletized by means of centrifuging for 10 minutes at 1700×g. Then, in each case 400 μl of the result was transferred to a counter container (7 ml) and, after the addition of 2 ml scintillator liquid such as Aquasafe™ 300 or HiSafe™ III, the radioactivity present in the result was counted (2 minutes in a beta-counter). […]

[2] = tested on: vitamin D binding protein from goat serum; assay: RIA for determining competition with 3H-25-OH-vitamin D3 and displacement efficiency; design: unit not given here; details: tracer 3H-25-OH-vitamin D3
Method: Displacement efficiencies on vitamin D binding protein from goat serum and competition with ^3H-250H-vitamin D3 were measured for three vitamin D derivates using a RIA. The tested derivatives were 25-OH-vitamin D, biotinylated 25-OH-vitamin D3 of example 1 and 25-OH-D3 dimer of example 10.
The dimer having a short spacer has a lower displacement efficiecy than the corresponding biotinylated compound with the longer spacer group. […] For comparision, compound C in WO 97/24127 (Holick et al.) could only displace the tritiated compound from human vitamin D binding protein when it was present in eleven-fold excess. […] A longer spacer group in the vitamin D dimer leads to a higher affinity to DBP. An eleven fold lower affinity on the other hand is typical for vitamin D derivatives lacking the 25 hydroxy group which is essential for high affinity to vitamin D binding protein DBP.

[3] = Stability of the 25-OH-D3-biotin compound in protonic solvent (NMR, HPLC); assay type: physicochemical; details: protonic solvent pH 4-5; for HPLC analysis, compound intact: 200 days
Method: In each case 20 mg purified 25-OH-D3-biotin compound (25-OH-vitamin D3-3β-3′[6-N-(biotinyl)-hexamido]amidopropylether) from Example 1 was placed in an NMR test tube to which 1 ml solvent was added. The solvent was a mixture of deuterium chloroform:deuterium acetonitrile: D2O in the ratio 3:2:1 with a pH-value between 4 and 5. The samples were stored for 200 days under the conditions set out below and the NMR spectra were investigated at regular intervals. • Sample 1: light excluded at −20EC; • Sample 2 light excluded at +4−6EC; • Sample 3: light excluded at room temperature; • Sample 4: subject to strong light (on a window ledge) at room temperature.
An HPLC analysis confirmed that samples 1 and 2 were intact even after 200 days in protonic solvent.

[4] = 250 nmol/l added to serum treated with activated charcoal

Compound | cross-reaction [1, 4] | B/Bo ([2]; Conc. 0.1 ng/ml) | B/Bo ([2]; Conc. 1 ng/ml) | B/Bo ([2]; Conc. 10 ng/ml) | B/Bo ([2]; Conc. 100 ng/ml) | B/Bo ([2]; Conc. 1000 ng/ml) | other results
C=C1/C(=C\C=C2/CCC[C@]3(C)[C@@H]([C@H](C)CCCC(C)(C)O)CC[C@@H]23)C[C@@H](O)C[C@@H]1O [1,25-(OH)2-vitamin D3] | no cross-reactivity | – | – | – | – | – | –
C=C1CCC(O)C/C1=C\C=C1\CCCC2(C)C1CCC2C(C)CCC(O)C(C)(C)O (centres unmarked) [24,25-(OH)2-vitamin D3] | 100% | – | – | – | – | – | –
C=C1CC[C@H](O)C/C1=C/C=C1\CCC[C@]2(C)[C@@H]([C@H](C)CCCC(C)(C)O)CC[C@@H]12 [25-OH-D3, 25-OH-vitamin D3, reference compound] | – | 100 | 92 | 33 | 10 | 7 | –
C=C1CC[C@H](O)C/C1=C/C=C1\CCC[C@]2(C)[C@@H]([C@H](C)/C=C/[C@H](C)C(C)(C)O)CC[C@@H]12 [25-OH-vitamin D2] | – | – | – | – | – | – | cross-reaction ([1]; 125 nmol/l added to serum treated with activated charcoal): 60%
C=C1CC[C@H](OCCCNC(=O)CCCCCNC(=O)CCCCC2SCC3NC(=O)NC32)C/C1=C/C=C1\CCC[C@@]2(C)C1CC[C@@H]2C(C)CCCC(C)(C)O (stereo partly drawn) [Biotin-25OH-D3, 25-Hydroxy vitamin D3-3β-3′[6-N-(biotinyl)hexamido]-amidopropylether] | – | 100 | 99 | 63 | 15 | 8 | HPLC analysis, compound intact ([3]; Sample 1: light excluded at -20EC): intact; HPLC analysis, compound intact ([3]; Sample 2: light excluded at +4-6EC): intact; HPLC analysis, compound still intact ([3]; Sample 3: light excluded at room temperature, after 100 days): more than 78%; degradation ([3]; Sample 4: strong light (window ledge) at room temperature): degraded after two months
